The target of one test is RORγ LBD (Homo sapiens (Human), UniProt P51449). The test is described as follows: ROR gamma radio-ligand binding assay (3H 25-Hydroxycholesterol competitive displacement, dextran charcoal method). The note with it: for inhibition at 1 µM / RORγ ligand binding assay: % inhibition @1 μM: 1 μM compound; for inhibition at 10 µM / RORγ ligand binding assay: % inhibition @ 10 μM: 10 μM compound; for IC50: in range. The method, boiled down: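 Human RORγ LBD (aa 247–497) was expressed as a GST fusion in E. coli and purified. For binding, 300 ng protein, 5 nM ³H-25-hydroxycholesterol and compound were incubated for 30 min at room temperature in 50 mM HEPES pH 7.5, 150 mM NaCl, 0.01% BSA and 5 mM MgCl2. After dextran-charcoal separation, the supernatant was counted and 10-point curves were fitted by variable-slope sigmoid.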

Test [1] concerns the target ROR gamma ligand binding domain (Homo sapiens (Human), UniProt P51449). The test is described as follows: ROR gamma luciferase reporter assay (GAL4-ROR gamma LBD, HEK293 cells). The note with it: 48 hours treatment, read-out: RORγ luciferase Reporter assay: IC50 (nM) (in range). Type of test: cell-based. The essentials:
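HEK293 cells were co-transfected with a GAL4 DBD–RORγ LBD fusion (hRluc vector) and a 9xGAL4 UAS luc2P reporter, then treated with compounds for 48 h. Bright-Glo luminescence was used to derive potency.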
(In general: Reporter assays use an easily measured gene product as a stand-in for the process of interest.)

Test [2] deals with EL-4 murine lymphoma cell line. The note with it: cited from earlier work.

Consider 16 compounds from US11229636B2, “Substituted tetrahydroquinolinone compounds as ROR gamma modulators” (Aurigene Discovery Technologies Limited, priority 2015, dated 2022).

Molecules are shown by their SMILES. A value given as a limit tells only on which side of the number the result lay.

RORγ LBD, sequence (P51449 268-518): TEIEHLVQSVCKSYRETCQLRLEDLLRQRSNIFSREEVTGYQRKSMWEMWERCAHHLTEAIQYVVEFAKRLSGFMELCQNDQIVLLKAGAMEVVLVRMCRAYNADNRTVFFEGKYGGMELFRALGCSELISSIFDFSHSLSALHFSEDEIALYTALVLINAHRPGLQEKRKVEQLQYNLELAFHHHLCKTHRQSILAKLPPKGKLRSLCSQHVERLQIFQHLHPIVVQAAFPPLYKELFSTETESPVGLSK
ROR gamma ligand binding domain, sequence (P51449 269-508): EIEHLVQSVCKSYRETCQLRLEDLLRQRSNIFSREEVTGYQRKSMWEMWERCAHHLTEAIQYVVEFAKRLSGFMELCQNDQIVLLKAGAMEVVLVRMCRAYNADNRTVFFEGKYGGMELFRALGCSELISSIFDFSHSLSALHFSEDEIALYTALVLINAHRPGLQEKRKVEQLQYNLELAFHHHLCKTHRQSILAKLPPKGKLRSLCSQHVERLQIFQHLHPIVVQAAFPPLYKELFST

As a reminder, the inhibition is the share of the control response that was lost under treatment. Read a high inhibition as strong suppression. For orientation: IC50 means the point on the concentration scale where inhibition reaches its midpoint. For `CCS(=O)(=O)c1ccc(CC(=O)Nc2cc(C)c3c(n2)CCC(C)(c2cc(C)nc(C)n2)C3=O)cc1` (stereo not drawn) [Compound 28, N-(6-(2,6-dimethylpyrimidin-4-yl)-4,6-dimethyl-5-oxo-5,6,7,8-tetrahydroquinolin-2-yl)-2-(4-(ethylsulfonyl)phenyl)acetamide], on RORγ LBD, the inhibition at 1 µM was found to be 77%, the inhibition at 10 µM worked out at 100% and the IC50 lay within 150 to 300 nM. The IC50 in test [1] is 100 to 500 nM.
In the case of `CCS(=O)(=O)c1ccc(CC(=O)Nc2ccc3c(n2)CCC(C)(c2ncc(OC)cn2)C3=O)cc1` (single isomer, unassigned) [compound 112, 2-(4-(ethylsulfonyl)phenyl)-N-(6-(5-methoxypyrimidin-2-yl)-6-methyl-5-oxo-5,6,7,8-tetrahydroquinolin-2-yl)acetamide], at RORγ LBD, the “RORγ ligand binding assay: % inhibition @1 μM” value is given as 100%, the “RORγ ligand binding assay: % inhibition @ 10 μM” value was 73% and the IC50 was less than 150 nM. Moreover, the IC50 in test [1] was 100 to 500 nM.
With `CCS(=O)(=O)c1ccc(CC(=O)Nc2ccc3c(n2)CC(C)(C)C(c2ccc(O)cn2)C3=O)cc1` (stereo not drawn) [Compound 90, 2-(4-(ethylsulfonyl)phenyl)-N-(6-(5-hydroxypyridin-2-yl)-7,7-dimethyl-5-oxo-5,6,7,8-tetrahydroquinolin-2-yl)acetamide], on RORγ LBD, 1 µM produced 57% inhibition, the inhibition at 10 µM is 84% and the IC50 is 150 to 300 nM. Also, the IC50 in test [1] is greater than 500 nM.
For `CCS(=O)(=O)c1ccc(CC(=O)Nc2ccc3c(n2)CCC(C)(c2cc(C)nc(C)n2)C3=O)cc1` (stereo not drawn) [Compound 7, N-(6-(2,6-dimethylpyrimidin-4-yl)-6-methyl-5-oxo-5,6,7,8-tetrahydroquinolin-2-yl)-2-(4-(ethylsulfonyl)phenyl)acetamide], at RORγ LBD, the inhibition at 1 µM stood at 91%, at 10 µM the inhibition was 100% and the IC50 was less than 150 nM. Also, the IC50 in test [1] was 100 to 500 nM.
With `CCS(=O)(=O)c1ccc(CC(=O)Nc2cc(C)c3c(n2)CCC(C)(c2ccc(OC)nn2)C3=O)cc1` (single isomer, unassigned) [compound 110, 2-(4-(ethylsulfonyl)phenyl)-N-(6-(6-methoxypyridazin-3-yl)-4,6-dimethyl-5-oxo-5,6,7,8-tetrahydroquinolin-2-yl)acetamide], on RORγ LBD, the “RORγ ligand binding assay: % inhibition @1 μM” value came out at 100% and the “RORγ ligand binding assay: % inhibition @ 10 μM” value is 81%. For the same compound, the IC50 in test [1] is less than 100 nM.
With `OC(c1ccc(-c2ccc(CN3CCN(Cc4ccncc4)CC3)cc2)c(F)c1)(C(F)(F)F)C(F)(F)F` [SR2211], in test [2], the “synthesis of IL-17” value is “suppress the synthesis of IL-17”.
On RORγ LBD, `CCS(=O)(=O)c1ccc(CC(=O)Nc2ccc3c(n2)CCC(C)(c2ccc(O)nc2)C3=O)cc1` (stereo not drawn) [Compound 40, 2-(4-(ethylsulfonyl)phenyl)-N-(6-(6-hydroxypyridin-3-yl)-6-methyl-5-oxo-5,6,7,8-tetrahydroquinolin-2-yl)acetamide] came in with an inhibition at 1 µM of 44% and an inhibition at 10 µM of 88%. In addition, the IC50 in test [1] is greater than 500 nM.
At RORγ LBD, `CCS(=O)(=O)c1ccc(CC(=O)Nc2ccc3c(n2)CCC(C)(c2ccc(OC)nc2)C3=O)cc1` (stereo not drawn) [Compound 2, 2-(4-(ethylsulfonyl)phenyl)-N-(6-(6-methoxypyridin-3-yl)-6-methyl-5-oxo-5,6,7,8-tetrahydroquinolin-2-yl)acetamide] had an inhibition at 1 µM of 84%, an inhibition at 10 µM of 89% and an IC50 of less than 150 nM. For the same compound, in test [1], the IC50 is 100 to 500 nM.
At RORγ LBD, `CCS(=O)(=O)c1ccc(CC(=O)Nc2ccc3c(n2)CCC(C)(c2ccc(C(C)C)nn2)C3=O)cc1` (stereo not drawn) [Compound 62, 2-(4-(ethylsulfonyl)phenyl)-N-(6-(6-isopropylpyridazin-3-yl)-6-methyl-5-oxo-5,6,7,8-tetrahydroquinolin-2-yl)acetamide] had an inhibition at 1 µM of 96%, an inhibition at 10 µM of 91% and an IC50 of less than 150 nM. Also, the IC50 in test [1] is greater than 500 nM.
On to `CCS(=O)(=O)c1ccc(CC(=O)Nc2ccc3c(n2)CCC(C)(c2ncc(OC)cn2)C3=O)cc1` (single isomer, unassigned) [compound 111, 2-(4-(ethylsulfonyl)phenyl)-N-(6-(5-methoxypyrimidin-2-yl)-6-methyl-5-oxo-5,6,7,8-tetrahydroquinolin-2-yl)acetamide], for which, on RORγ LBD, the “RORγ ligand binding assay: % inhibition @1 μM” value came to 62%, the “RORγ ligand binding assay: % inhibition @ 10 μM” value is 19% and the IC50 is greater than 300 nM. The half-inhibitory concentration (IC50) in test [1] is greater than 500 nM.
Regarding `CCS(=O)(=O)c1ccc(CC(=O)Nc2ccc3c(n2)CCC(C)(c2cc(C)nc(C)n2)C3=O)cc1` (single isomer, unassigned) [compound 104, N-(6-(2,6-dimethylpyrimidin-4-yl)-6-methyl-5-oxo-5,6,7,8-tetrahydroquinolin-2-yl)-2-(4-(ethylsulfonyl)phenyl)acetamide], at RORγ LBD, the “RORγ ligand binding assay: % inhibition @1 μM” value turned out to be 94%, the “RORγ ligand binding assay: % inhibition @ 10 μM” value is listed as 88% and the IC50 was less than 150 nM. The IC50 in test [1] was 100 to 500 nM.
`CCS(=O)(=O)c1ccc(CC(=O)Nc2cc(C)c3c(n2)CCC(C)(c2ccc(OC)cn2)C3=O)cc1` (stereo not drawn) [Compound 20, 2-(4-(ethylsulfonyl)phenyl)-N-(6-(5-methoxypyridin-2-yl)-4,6-dimethyl-5-oxo-5,6,7,8-tetrahydroquinolin-2-yl)acetamide]: at RORγ LBD, the inhibition at 1 µM worked out at 76% and the inhibition at 10 µM stood at 95%. Also, the IC50 in test [1] fell in the range of 100 to 500 nM.
With `CCc1ccc(C2(C)CCc3nc(NC(=O)Cc4ccc(S(=O)(=O)CC)cc4)ccc3C2=O)nn1` (stereo not drawn) [Compound 41, N-(6-(6-ethylpyridazin-3-yl)-6-methyl-5-oxo-5,6,7,8-tetrahydroquinolin-2-yl)-2-(4-(ethylsulfonyl)phenyl)acetamide], at RORγ LBD, 1 µM produced 47% inhibition and the inhibition at 10 µM is 82%. Besides, the IC50 in test [1] is greater than 500 nM.
On RORγ LBD, `CCS(=O)(=O)c1ccc(CC(=O)Nc2cc(C)c3c(n2)CCC(C)(c2ccc(C)nn2)C3=O)cc1` (stereo not drawn) [Compound 34, N-(4,6-dimethyl-6-(6-methylpyridazin-3-yl)-5-oxo-5,6,7,8-tetrahydroquinolin-2-yl)-2-(4-(ethylsulfonyl)phenyl)acetamide] came in with an inhibition at 1 µM of 74%, an inhibition at 10 µM of 97% and an IC50 greater than 300 nM. In addition, the IC50 in test [1] was greater than 500 nM.
With `CCS(=O)(=O)c1ccc(CC(=O)Nc2cc(C)c3c(n2)CCC(C)(c2cc(C)nc(C)n2)C3=O)cc1` (single isomer, unassigned) [compound 108, N-(6-(2,6-dimethylpyrimidin-4-yl)-4,6-dimethyl-5-oxo-5,6,7,8-tetrahydroquinolin-2-yl)-2-(4-(ethylsulfonyl)phenyl)acetamide], at RORγ LBD, the “RORγ ligand binding assay: % inhibition @1 μM” value was 78%, the “RORγ ligand binding assay: % inhibition @ 10 μM” value stood at 28% and the IC50 was greater than 300 nM. In addition, the IC50 in test [1] is greater than 500 nM.
Take `CCS(=O)(=O)c1ccc(CC(=O)Nc2cc(C)c3c(n2)CCC(C)(c2nccc(OC)n2)C3=O)cc1` (stereo not drawn) [Compound 21, 2-(4-(ethylsulfonyl)phenyl)-N-(6-(4-methoxypyrimidin-2-yl)-4,6-dimethyl-5-oxo-5,6,7,8-tetrahydroquinolin-2-yl)acetamide]: on RORγ LBD, the inhibition at 1 µM amounted to 94%, the inhibition at 10 µM turned out to be 92% and the IC50 fell in the range of 150 to 300 nM. Moreover, the IC50 in test [1] was less than 100 nM.
